Legend:
[1] = Transcutaneous penetration / comparative release of active ingredient in horizontal glass Franz-type diffusion cells; type: in vitro ADME; details: 2 hrs; 0.5 g sample; mean of duplicates
From the text: The transcutaneous penetration and comparative release of active ingredient were compared using a horizontal glass Franz-type diffusion cells such as are described in R. Danids, (Skin Care Forum, Issue 37, August 2004, Cognis); S. Jung, (The University of California Irvine Undergraduate Research Journal, p. 25-26, Vol V, 2002, University of California Irvine); Guideline for Industry Non-sterile Semisolid Dosage Forms (SUPAC-SS CMC7), May 1997, U.S. Department of Health and Human Services FDA CDER. A standard cellophane dialysis membrane of MW cut off 6-8000 was used for the diffusion studies. The Franz cell receiving solution was composed of 50% v/v methanol/water. Cellophane membranes were mounted horizontally in the Franz cells. 0.5 g of sample were used for each test. The cell receptor was continuously stirred magnetically and maintained at 35+/−2° C. At the designated time 150 microliters aliquots were sampled from the receiving vessel of the Franz cells. 20 microliters were injected into HLPC. […]
0.5 g samples of compositions according to examples 2, 3 and 4 were compared over periods of 2, 4 and 7 hours with a prior art composition comprising 5% chlorhexidine in 62% ethyl alcohol. […] Column C, D, and E give the results for the actives in the respective formulations, both in mg and as a % of the sample quantity tested.

[2] = tested on: Pseudomonas aeruginosa ATTC 15442; details: triclosan alone, known; cited from earlier work

| Compound | chlorhexidine penetrated, % of the sample quantity tested [1] [%] | triclosan penetrated, % of the sample quantity tested [1] [%] | effectiveness against Pseudomonas aeruginosa [2] |
| --- | --- | --- | --- |
| [H]/N=C(\N/C(=N/[H])NCCCCCCNC(=N)NC(=N)Nc1ccc(Cl)cc1)Nc1ccc(Cl)cc1 [chlorhexidine] | < 0.24 |  |  |
| Oc1cc(Cl)ccc1Oc1ccc(Cl)cc1Cl [triclosan, 2,4,4-trichloro-2-hydroxy-diphenylether] |  | 0.24 | relatively ineffective |
